Here are results for one compound from US6514686B2, “Method and composition for modulating amyloidosis” (The University of British Columbia, priority 1997, dated 2003).

The test system of assay [1] is Aβ secretion in K269sw cells transfected with human pHaMDR1 construct. Kind of assay: Aβ secretion from K269sw cells transiently transfected with pHaMDR1 (W0-2 western blot). It counts as cell-based. Conditions: RU49953 0.01-1.0 μM, fifteen minutes; FIG. 12. As to the method:
K269sw cells were cultured in 20 mm Falcon dishes in DMEM containing 10% FBS, and […] geneticin (GIBCO) to about 50% confluence and transiently transfected with the human pHaMDR1 construct using the calcium-phosphate precipitation technique as described above. Cells were replated at a density of 2.0×10^6 cells/dish 8 hours post-transfection on 10 cm petri dishes as described above. To assay for transfection efficiency, the β-gal gene was also co-transfected into the cells. β-gal staining was performed to determine the percentage of cells within each dish which were successfully transfected with the cDNA.
Exposures were performed without resuspending the cells. 10 mL of DMEM containing either control (DMSO), PMA (0.1 μM), or RU486 (0.001 μM, 0.01 μM, 0.1 μM, 1.0 μM), were prepared. DMSO concentrations in the medium were normalized to 0.01% (v/v). The supplemented medium was aspirated and 1 mL of the appropriate medium was added to the cells. […] 5 μL from each sample was collected for protein quantification. […]
SDS-PAGE was used to resolve secreted protein on a 16.5% tris-tricine polyacrylamide gel. […] Aβ was visualized using ECL and quantitation was performed as previously described. […]
Exposures were performed without resuspending the cells. […] 5 μL from each sample was collected for protein quantification. […]

The subject of assay [2] is MDR1. Conditions: cited from earlier work.

`CC#C[C@]1(O)CC[C@H]2[C@@H]3CCC4=CC(=O)CCC4=C3[C@@H](c3ccc(N(C)C)cc3)C[C@@]21C` [RU49953, 17β-hydroxy-11β, 17α-[4-dimethylaminophenyl]-17α prop-1-ynyl estra-4, 9 dien-3 one]: the “effect on Aβ secretion” value in assay [1] is reported as “reduces Aβ secretion in fifteen minutes in a dose-dependent manner”. For the same compound, the “binding to and block of MDR1 mediated efflux” value in assay [2] is “bind to and block”.
